According to PubChem BioAssay AID1996:
≈ marks a conversion by molar mass, not a printed value.

Conditions: buffer; pH 7.4; 200.0 µM

Row | Structure (SMILES) | solubility kinetic
1 | COc1cc(OC)cc(C(=O)NCC(=O)N2CCN(Cc3ccccc3)CC2)c1 | > 59.6 µg/mL
2 | CCOc1ccccc1NC(=O)c1ccc2nc[nH]c2c1 | > 42.2 µg/mL
3 | CCn1c(=O)c2cc(C(=O)NCCC(C)C)sc2c2ccccc21 | < 0.4 µg/mL
4 | O=C(O)CSCC(=O)NCc1csc2ccc(Cl)cc12 | 37.9 µg/mL (≈ 115 µM)
5 | COC(=O)Nc1nn(-c2ccc(OC)cc2)c(=O)c(C#N)c1C | > 47.1 µg/mL
6 | CCc1noc(C)c1C(=O)Nc1ccc(C(F)(F)F)cc1 | 7.5 µg/mL (≈ 25.1 µM)
7 | COC(=O)c1ccc(CNC(=O)c2ccc3c(c2)OCCO3)cc1 | 45.5 µg/mL (≈ 139 µM)
8 | Cc1ccc(F)cc1NC(=O)C1C2CCC(O2)C1C(=O)O (stereo unspecified) | > 44 µg/mL
9 | O=C(/C=C/Nc1ccc(F)c(Cl)c1)c1ccccc1 | 0.7 µg/mL (≈ 2.54 µM)
10 | O=C1NC(c2cccc([N+](=O)[O-])c2)=CCN1c1ccccc1O | 45.2 µg/mL (≈ 145 µM)
11 | CC(C)NC(=O)N1CCN(c2ccncc2S(=O)(=O)N2CCCCC2)CC1 | > 59.3 µg/mL
12 | CCN(CC(=O)N1CCOCC1)S(=O)(=O)c1ccc(F)cc1 | 41.2 µg/mL (≈ 125 µM)
13 | O=C1Cc2ccccc2C(=O)N1c1cccc(Cl)c1 | > 40.8 µg/mL
14 | CCn1cc(C(=O)O)c(=O)c2cnc(N3CCN(C(=S)Nc4ccccc4)CC3)nc21 | 27.2 µg/mL (≈ 62 µM)
15 | O=C1CSC(c2ccc(F)cc2)N1c1ccccc1F (stereo unspecified) | 36.8 µg/mL (≈ 126 µM)
16 | CCCn1c(SCCC(=O)O)nc2ccccc21 | > 39.7 µg/mL
17 | CC(=O)c1c(C)[nH]c(C(=O)Nc2cccc(S(=O)(=O)N3CCCC3)c2)c1C | 7 µg/mL (≈ 18 µM)
18 | CCc1cc(C(=O)OC)c(NC(=O)c2ccoc2C)s1 | < 0.6 µg/mL
19 | O=c1cc(C(F)(F)F)[nH]c(=S)n1-c1ccccc1 | > 40.8 µg/mL
20 | COc1ccc(N2CCN(C(=O)c3cc(C)on3)CC2)cc1 | > 45.2 µg/mL
21 | CC(=O)c1sc(=S)n(Cc2ccccc2)c1C | 38 µg/mL (≈ 144 µM)
22 | Cc1c(C(=O)NC2CCCc3ccccc32)cccc1[N+](=O)[O-] (stereo unspecified) | 6.1 µg/mL (≈ 19.7 µM)
23 | COc1cccc(OCCNS(=O)(=O)c2ccccc2[N+](=O)[O-])c1 | 47.2 µg/mL (≈ 134 µM)
24 | CC(C)c1ccc(C(C)NC(=S)NC2CCCCC2)cc1 (stereo unspecified) | 1.9 µg/mL (≈ 6.24 µM)

Row | Structure (SMILES) | solubility kinetic
25 | Cc1c(C)c(C)c(CO/N=C/c2cccs2)c(C)c1C | 1.3 µg/mL (≈ 4.52 µM)
26 | CNC(=O)CN1C(=O)NC(Cc2c[nH]c3ccccc23)C1=O (stereo unspecified) | > 45 µg/mL
27 | COc1ccc(C(=O)Nc2ccc3nc(C)sc3c2)cc1OC | 3 µg/mL (≈ 9.14 µM)
28 | COc1ccc(-c2nc(C#N)c(N3CCC(C)CC3)o2)cc1 | 0.3 µg/mL (≈ 1.01 µM)
29 | CS(=O)(=O)c1ccc([C@@H](O)[C@@H](CO)NC(=O)C(Cl)Cl)cc1 | > 53.4 µg/mL
30 | C=CCn1c(COc2ccccc2OC)nc2ccccc21 | 10.2 µg/mL (≈ 34.7 µM)
31 | COc1ccccc1CN(C)C(=O)COC(=O)c1ccc(Cl)nc1 | > 52.3 µg/mL
32 | O=C(NCCCc1ccccc1)c1ccc([N+](=O)[O-])cc1Cl | 9.2 µg/mL (≈ 28.9 µM)
33 | COc1cc(OC)c(C(=O)OCC(=O)c2ccc3c(c2)NC(=O)CO3)cc1OC | 4.9 µg/mL (≈ 12.2 µM)
34 | O=C(COc1cccc(Cl)c1Cl)NC1CC1 | > 39 µg/mL
35 | NC(=O)COC(=O)c1ccc2c(c1)C(=O)N(Cc1ccco1)C2=O | > 49.2 µg/mL
36 | O=C(COC(=O)C1CC2CCCC(C1)C2=O)NC1CCCCC1 (stereo unspecified) | > 48.2 µg/mL
37 | O=C1CC(c2ccccc2)CC2=C1C=Nc1ccccc1N2 (stereo unspecified) | 37 µg/mL (≈ 128 µM)
38 | O=C(COC(=O)c1cc(Cl)nc(Cl)c1)NCc1ccc2c(c1)OCO2 | 12.1 µg/mL (≈ 31.6 µM)
39 | COc1ccccc1CC(=O)N1CCN(S(=O)(=O)c2ccccc2F)CC1 | > 58.9 µg/mL
40 | Cc1c(NC(=O)c2ccc3nsnc3c2)cccc1[N+](=O)[O-] | 2.3 µg/mL (≈ 7.32 µM)
41 | Fc1ccccc1N1CCN(Cc2cnc(Cl)s2)CC1 | 37.1 µg/mL (≈ 119 µM)
42 | Cn1c(-c2ccccc2)c[n+]2c1CCCCC2.[Br-] | > 46.1 µg/mL
43 | O=C(Nc1cccc(Cl)c1)Nc1sccc1-c1nc2ccccc2s1 | 4.5 µg/mL (≈ 11.7 µM)
44 | Nc1no[n+]([O-])c1-c1ccccc1 | 24.2 µg/mL (≈ 137 µM)
45 | N/C(=N\c1nc2ccccc2o1)NC(=O)c1cccc(Br)c1 | < 0.2 µg/mL
46 | O=C(Nc1ccc(C(=O)O)cc1)Nc1cccc2ccccc12 | > 45.9 µg/mL
47 | Cc1ccc(OCCN2CCCC2)cc1.O=C(O)C(=O)O | > 44.3 µg/mL
48 | CC1SC2(NC1=O)C1CC3CC(C1)CC2C3 (stereo unspecified) | 3.4 µg/mL (≈ 14.3 µM)

Row | Structure (SMILES) | solubility kinetic
49 | CCOn1c(=O)c(-c2ccc(Br)cc2)[n+]([O-])c2ccccc21 | 1.3 µg/mL (≈ 3.6 µM)
50 | Cc1ccc(S(=O)(=O)N2CCOCC2)cc1C(=O)NC1=NCCS1 | > 55.4 µg/mL
51 | CCc1ccccc1NC(=O)NCc1cccnc1 | > 38.3 µg/mL
52 | CC1=C(Cl)C2=NS(=O)(=O)CCN2C=C1Cl | > 40.1 µg/mL
53 | CC(C)(C)OC(=O)N1CCC(CNC(=O)c2ccc(F)cc2)CC1 | > 50.5 µg/mL
54 | CC1CC(C)CN(C(=O)CSCC(=O)O)C1 (stereo unspecified) | > 36.8 µg/mL
55 | Cc1cccc(NC(=O)NC2(C)CCS(=O)(=O)C2)c1 (stereo unspecified) | > 42.4 µg/mL
56 | COc1cccc(CNC(=O)c2ccccc2-c2ccccc2)c1 | 2.1 µg/mL (≈ 6.62 µM)
57 | CN(C)c1cc[n+](CC(=O)c2ccc(Br)cc2)cc1.[Cl-] | 52.8 µg/mL
58 | COc1ccc(S(=O)(=O)NC(C)C(=O)N2CCCC2)cc1C (stereo unspecified) | 41.9 µg/mL (≈ 128 µM)
59 | COc1cc(NC(=O)CC(C)n2ccnc2)cc(OC)c1 (stereo unspecified) | > 43.4 µg/mL
60 | Cc1ccccc1S(=O)(=O)NCC1CCCO1 (stereo unspecified) | 27.1 µg/mL (≈ 106 µM)
61 | O=S(=O)(Nc1cccc2ccccc12)c1cccs1 | 5.1 µg/mL (≈ 17.6 µM)
62 | Cc1ccc(S(=O)(=O)c2c[nH]c3ccc(C)cc3c2=O)cc1 | < 0.7 µg/mL
63 | CC(C)c1ccc(N=Cc2c(O)n(C3CC3)c(=S)[nH]c2=O)cc1 | 0.5 µg/mL (≈ 1.52 µM)
64 | COc1ccc(OC)c(C2=NOC(C(=O)Nc3cc(C)on3)C2)c1 (stereo unspecified) | 44.1 µg/mL (≈ 133 µM)
65 | COc1ccc(C)cc1NC(=O)COC(=O)c1ccc([N+](=O)[O-])o1 | 3.4 µg/mL (≈ 10.2 µM)
66 | O=C(CN1CCCC1)Nc1cc(C(F)(F)F)ccc1Cl | 18.1 µg/mL (≈ 59 µM)
67 | O=C(/C=C/c1ccc(Cl)cc1)NCCCN1CCOCC1 | > 46.3 µg/mL
68 | COc1ccc(N2CCCC2)c(NC(=O)COc2ccccc2Cl)c1 | 1 µg/mL (≈ 2.77 µM)
69 | COc1ccc(CCNC(=O)c2cccn2C)cc1 | 33.3 µg/mL (≈ 129 µM)
70 | O=C1C2CCCN2C(=S)N1c1ccc(Cl)cc1 (stereo unspecified) | > 40 µg/mL
71 | O=[N+]([O-])c1ccc(Cl)cc1CN1CCCCCC1 | 16.7 µg/mL (≈ 62.1 µM)
72 | O=[N+]([O-])c1ccccc1S(=O)(=O)N1CCN(Cc2ccccc2)CC1 | 24.4 µg/mL (≈ 67.5 µM)

Row | Structure (SMILES) | solubility kinetic
73 | O=C(Nc1ccc2c(c1)OCO2)c1ccc([N+](=O)[O-])cc1[N+](=O)[O-] | 10.6 µg/mL (≈ 32 µM)
74 | CN1CCCN(C(=O)COc2ccc(Br)cc2)CC1 | 44.7 µg/mL (≈ 137 µM)
75 | CC1=C(C#N)C2(O)C(=O)c3ccccc3C2(O)N1 (stereo unspecified) | > 36.3 µg/mL
76 | CSc1oc(-c2cccs2)nc1S(=O)(=O)c1ccccc1 | 3.9 µg/mL (≈ 11.6 µM)
77 | Cc1cccc(NC(=O)COC(=O)c2ccc([N+](=O)[O-])o2)c1C | 17.2 µg/mL (≈ 54 µM)
78 | O=C(Nc1ccccc1Cl)C1Cc2ccccc2O/C1=N\O (stereo unspecified) | > 47.5 µg/mL
79 | CCN1CCN(C(=S)NC(=O)c2cccc(Br)c2)CC1 | > 53.4 µg/mL
80 | COC(=O)CN(C#N)c1nc(N(C)C)nc(N(C)C)n1 | 31.2 µg/mL (≈ 112 µM)
81 | O=C(Nc1ccc(Cl)c(Cl)c1)N1CCOCC1 | > 41.3 µg/mL
82 | CCOc1ccc2nc(NC(=O)CN3CCOCC3)sc2c1 | > 48.2 µg/mL
83 | O=C(COc1ccccc1Cl)NCCCNC(=O)c1ccco1 | > 50.5 µg/mL
84 | CCOC(=O)c1c(NC(=O)COC(=O)c2cccnc2OCC)sc(C(=O)N(CC)CC)c1C | 4.6 µg/mL (≈ 9.36 µM)
85 | COc1cccc(S(=O)(=O)Nc2ccc3c(c2)OCCO3)c1 | > 48.2 µg/mL
86 | O=C(CN1C(=O)NC2(CCSC2)C1=O)NCc1ccccc1 (stereo unspecified) | > 47.9 µg/mL
87 | CCC12CN3CCN(CC(C3)/C1=N\NC(=O)c1ccc(F)cc1)C2 | > 49.6 µg/mL
88 | Cc1ccc(S(=O)(=O)NCC(=O)OCC(=O)N(CCC#N)c2ccccc2)cc1 | > 62.3 µg/mL
89 | COc1ccc(C(=O)CNc2ccc(C)cc2C)cc1 | 5.8 µg/mL (≈ 21.5 µM)
90 | Cc1nc2c(C)[n+](CC(=O)c3ccccc3)ccc2n1C.[Br-] | > 54 µg/mL
91 | Cc1cc(C)c(C)c(S(=O)(=O)N(C)CCc2ccccn2)c1C | > 49.9 µg/mL
92 | CCOC(=O)Nc1ccc(N2CCOCC2)c(S(=O)(=O)Nc2ccc(Cl)cc2)c1 | 7.8 µg/mL (≈ 17.7 µM)
93 | Cc1cccc(NC(=O)C2COc3ccccc3O2)n1 (stereo unspecified) | 35.9 µg/mL (≈ 133 µM)
94 | Cc1ccc(S(=O)(=O)N2CCOCC2)cc1C(=O)Nc1nc(-c2ccccn2)cs1 | 23.9 µg/mL (≈ 53.8 µM)
95 | CSC1=C(C#N)C(=O)NC(c2ccccc2O)S1 (stereo unspecified) | > 41.8 µg/mL
96 | NC(=O)c1cc(Cl)ccc1OCC(=O)NC1CC1 | > 40.3 µg/mL

Row | Structure (SMILES) | solubility kinetic
97 | Cc1ccc(S(=O)(=O)N2CCCCC2)cc1NC(=O)CSc1nc(N)cc(=O)[nH]1 | 52.7 µg/mL (≈ 120 µM)
98 | CCOC(=O)C1=C(C)N(CC(C)C)C(=O)/C1=C\c1cccs1 | < 0.7 µg/mL
99 | CN(C)C(CNC(=O)c1ccco1)c1cccs1 (stereo unspecified) | > 39.7 µg/mL
100 | CCOC(=O)C1CCCN(Cc2cccc(Oc3ccccc3)c2)C1 (stereo unspecified) | 3.1 µg/mL (≈ 9.13 µM)
101 | Cc1ccc(NC(=O)CCn2cc(C(F)(F)F)ccc2=O)cc1 | 45.5 µg/mL (≈ 140 µM)
102 | Cc1ccc2c(=O)cc(C(=O)NCc3ccccc3)oc2c1C | < 0.7 µg/mL
103 | CCC(=O)Nc1ccc(NC(=S)NC(=O)/C=C/c2ccco2)cc1 | 3 µg/mL (≈ 8.74 µM)
104 | O=C(Nc1cccc(S(=O)(=O)NC2=NCCC2)c1)c1ccc(C(F)(F)F)cc1 | 7.3 µg/mL (≈ 17.7 µM)
105 | CC1(c2ccccc2)NC(=O)N(CC(=O)Nc2ccc(N3CCOCC3)cc2)C1=O (stereo unspecified) | 27.6 µg/mL (≈ 67.6 µM)
106 | Cc1ccc(OCCCn2c(=O)oc3ccccc32)cc1 | 2 µg/mL (≈ 7.06 µM)
107 | Cc1ccc(NC(=O)COC(=O)C2=COCCO2)c([N+](=O)[O-])c1 | 6.6 µg/mL (≈ 20.5 µM)
108 | Cc1nc(N)nc(Cl)c1Cc1ccc(Cl)cc1 | 3.6 µg/mL (≈ 13.4 µM)
109 | O=C(NC12CC3CC(CC(C3)C1)C2)N(Cc1ccccc1)Cc1ccncc1 | 6.2 µg/mL (≈ 16.5 µM)
110 | CC(C(=O)NC1CCCC1)N1C(=O)c2cccc3cccc1c23 (stereo unspecified) | > 46.3 µg/mL
111 | O=C(NCCc1ccccc1F)c1ccc2c(c1)OCCO2 | > 45.2 µg/mL
112 | CC1CCCN(C(=O)CN2C(=O)C(C)Oc3ccccc32)C1 (stereo unspecified) | > 45.4 µg/mL
113 | NS(=O)(=O)c1ccc(NC(=O)c2ccc3nccnc3c2)cc1 | 7.5 µg/mL (≈ 22.8 µM)
114 | CSCCC(NC(=O)c1ccco1)C(=O)NNC(=O)c1n[nH]c(=O)c2ccccc12 (stereo unspecified) | > 64.4 µg/mL
115 | Cc1ccc(Nc2c([N+](=O)[O-])ccc3nonc23)cc1C | 0.4 µg/mL (≈ 1.41 µM)
116 | Cc1ccc(NC(=S)N2CCC(NC(=O)c3ccc(C)cc3)CC2)cc1 | 2.2 µg/mL (≈ 5.99 µM)
